Data reported in ChEMBL document CHEMBL1201862, “PubChem BioAssay data set” (2004).
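Tested at 5 concentrations; 48 h exposure; 96-well plates; endpoints linearly interpolated, else capped at highest concentration. Here, GI50 denotes the concentration required for 50% inhibition of growth.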 Active and inactive are the calls of the source. Cut-off read from the data, not from the text of the source: active = GI50 up to about 1.1 µM and inactive = higher.

Experiments:
Test in all cases: NCI-60 cell line screen, 48 h
[1] = tested on: UACC-62
[2] = tested on: HOP-92
[3] = tested on: KM12
[4] = tested on: NCI-H226
[5] = tested on: TK-10
[6] = tested on: SNB-19
[7] = tested on: SF-295
[8] = tested on: MDA-N
[9] = tested on: MCF7
[10] = tested on: HCT-15
[11] = tested on: SR
[12] = tested on: A549
[13] = tested on: SK-MEL-28
[14] = tested on: CAKI-1
[15] = tested on: OVCAR-3
[16] = tested on: MDA-MB-435
[17] = tested on: OVCAR-4
[18] = tested on: SW-620
[19] = tested on: SF-268
[20] = tested on: NCI-H23
[21] = tested on: NCI-H522
[22] = tested on: SK-OV-3
[23] = tested on: K562
[24] = tested on: LOX IMVI
[25] = tested on: COLO 205
[26] = tested on: HCT-116
[27] = tested on: SK-MEL-2
[28] = tested on: BT-549
[29] = tested on: MDA-MB-231
[30] = tested on: SF-539
[31] = tested on: IGROV-1
[32] = tested on: MOLT-4
[33] = tested on: RXF 393
[34] = tested on: SN12C
[35] = tested on: NCI/ADR-RES
[36] = tested on: NCI-H460
[37] = tested on: U-251
[38] = tested on: HCC 2998
[39] = tested on: SNB-75
[40] = tested on: HT-29
[41] = tested on: EKVX
[42] = tested on: OVCAR-8
[43] = tested on: UO-31
[44] = tested on: UACC-257
[45] = tested on: 786-0
[46] = tested on: Malme-3M
[47] = tested on: M14
[48] = tested on: RPMI-8226
[49] = tested on: HOP-62
[50] = tested on: ACHN
[51] = tested on: SK-MEL-5
[52] = tested on: T47D
[53] = tested on: DU-145
[54] = tested on: A498
[55] = tested on: Hs-578T
[56] = tested on: CCRF-CEM
[57] = tested on: PC-3
[58] = tested on: OVCAR-5
[59] = tested on: HL-60

c1ccc(/C(=N/Nc2ccccn2)c2cccnn2)cc1
GI50 [1]: 3.44 µM (inactive)
GI50 [2]: 5.48 µM (inactive)
GI50 [3]: 2.72 µM (inactive)
GI50 [4]: 1.07 µM (active)
GI50 [5]: 98.6 µM (inactive)
GI50 [6]: 10.3 µM (inactive)
GI50 [7]: 3.11 µM (inactive)
GI50 [8]: 7.57 µM (inactive)
GI50 [9]: 3.43 µM (inactive)
GI50 [10]: 0.824 µM
GI50 [11]: 0.522 µM (active)
GI50 [12]: 2.43 µM (inactive)
GI50 [13]: > 34.2 µM (inactive)
GI50 [14]: 1.75 µM (inactive)
GI50 [15]: 1.92 µM (inactive)
GI50 [16]: 4.73 µM (inactive)
GI50 [17]: > 84.5 µM (inactive)
GI50 [18]: 3.44 µM (inactive)
GI50 [19]: 0.853 µM (active)
GI50 [20]: 2.91 µM (inactive)
GI50 [21]: 0.441 µM (active)
GI50 [22]: 2.58 µM (inactive)
GI50 [23]: 1.47 µM (inactive)
GI50 [24]: 2.07 µM (inactive)
GI50 [25]: 0.741 µM (active)
GI50 [26]: 2.28 µM (inactive)
GI50 [27]: 12.7 µM (inactive)
GI50 [28]: 13.9 µM (inactive)
GI50 [29]: 2.57 µM (inactive)
GI50 [30]: 2.74 µM (inactive)
GI50 [31]: 1.79 µM (inactive)
GI50 [32]: 0.632 µM (active)
GI50 [33]: 15.7 µM (inactive)
GI50 [34]: 2.15 µM (inactive)
GI50 [35]: 2.17 µM (inactive)
GI50 [36]: 1.34 µM (inactive)
GI50 [37]: 4.21 µM (inactive)
GI50 [38]: 5.37 µM (inactive)
GI50 [39]: 2.78 µM (inactive)
GI50 [40]: 1.16 µM (inactive)
GI50 [41]: 1.74 µM (inactive)
GI50 [42]: 1.87 µM (inactive)
GI50 [43]: 0.885 µM (active)
GI50 [44]: 3.94 µM (inactive)
GI50 [45]: 1.38 µM (inactive)
GI50 [46]: 5.4 µM (inactive)
GI50 [47]: 1.45 µM (inactive)
GI50 [48]: 2.17 µM (inactive)
GI50 [49]: 2.85 µM (inactive)
GI50 [50]: 0.998 µM (active)
GI50 [51]: 2.35 µM (inactive)
GI50 [52]: 9.16 µM (inactive)
GI50 [53]: 2.62 µM (inactive)
GI50 [54]: > 25.3 µM (inactive)
GI50 [55]: 11.8 µM (inactive)
GI50 [56]: 0.767 µM (active)
GI50 [57]: 5.86 µM (inactive)
GI50 [58]: 7.73 µM (inactive)
GI50 [59]: 3.61 µM (inactive)

CC(CCC(=O)O)C(=O)O (stereo not given)
GI50 [1]: > 100 µM (inactive)
GI50 [2]: > 100 µM (inactive)
GI50 [3]: > 100 µM (inactive)
GI50 [4]: > 100 µM (inactive)
GI50 [5]: > 100 µM (inactive)
GI50 [6]: > 100 µM (inactive)
GI50 [7]: > 100 µM (inactive)
GI50 [8]: > 100 µM (inactive)
GI50 [9]: > 100 µM (inactive)
GI50 [10]: > 100 µM
GI50 [11]: > 100 µM (inactive)
GI50 [12]: > 100 µM (inactive)
GI50 [13]: > 100 µM (inactive)
GI50 [14]: > 100 µM (inactive)
GI50 [15]: > 100 µM (inactive)
GI50 [16]: > 100 µM (inactive)
GI50 [17]: > 100 µM (inactive)
GI50 [18]: > 100 µM (inactive)
GI50 [19]: > 100 µM (inactive)
GI50 [20]: > 100 µM (inactive)
GI50 [21]: > 100 µM (inactive)
GI50 [22]: > 100 µM (inactive)
GI50 [23]: > 100 µM (inactive)
GI50 [24]: > 100 µM (inactive)
GI50 [25]: > 100 µM (inactive)
GI50 [26]: > 100 µM (inactive)
GI50 [27]: > 100 µM (inactive)
GI50 [28]: > 100 µM (inactive)
GI50 [29]: > 100 µM (inactive)
GI50 [30]: > 100 µM (inactive)
GI50 [31]: > 100 µM (inactive)
GI50 [32]: > 100 µM (inactive)
GI50 [33]: > 100 µM (inactive)
GI50 [34]: > 100 µM (inactive)
GI50 [35]: > 100 µM (inactive)
GI50 [36]: > 100 µM (inactive)
GI50 [37]: > 100 µM (inactive)
GI50 [38]: > 100 µM (inactive)
GI50 [39]: > 100 µM (inactive)
GI50 [40]: > 100 µM (inactive)
GI50 [41]: > 100 µM (inactive)
GI50 [42]: > 100 µM (inactive)
GI50 [43]: > 100 µM (inactive)
GI50 [44]: > 100 µM (inactive)
GI50 [45]: > 100 µM (inactive)
GI50 [46]: > 100 µM (inactive)
GI50 [47]: > 100 µM (inactive)
GI50 [48]: > 100 µM (inactive)
GI50 [49]: > 100 µM (inactive)
GI50 [50]: > 100 µM (inactive)
GI50 [51]: > 100 µM (inactive)
GI50 [52]: > 100 µM (inactive)
GI50 [53]: > 100 µM (inactive)
GI50 [54]: > 100 µM (inactive)
GI50 [55]: > 100 µM (inactive)
GI50 [56]: > 100 µM (inactive)
GI50 [57]: > 100 µM (inactive)
GI50 [58]: > 100 µM (inactive)
GI50 [59]: > 100 µM (inactive)

C[Si](C)(C)OC1(C#N)c2ccccc2CCCC12CCCC2 (stereo not given)
GI50 [1]: 80.2 µM (inactive)
GI50 [2]: 29.1 µM (inactive)
GI50 [3]: 42.8 µM (inactive)
GI50 [4]: > 100 µM (inactive)
GI50 [5]: > 100 µM (inactive)
GI50 [6]: 44 µM (inactive)
GI50 [7]: 34 µM (inactive)
GI50 [8]: 46 µM (inactive)
GI50 [9]: 30.1 µM (inactive)
GI50 [10]: 39 µM
GI50 [11]: 29.6 µM (inactive)
GI50 [12]: 34.9 µM (inactive)
GI50 [13]: 44.5 µM (inactive)
GI50 [14]: > 100 µM (inactive)
GI50 [15]: 46 µM (inactive)
GI50 [16]: 44.1 µM (inactive)
GI50 [17]: 80 µM (inactive)
GI50 [18]: 44.9 µM (inactive)
GI50 [19]: 57.4 µM (inactive)
GI50 [20]: 45.7 µM (inactive)
GI50 [21]: 21.9 µM (inactive)
GI50 [22]: > 100 µM (inactive)
GI50 [23]: 34.7 µM (inactive)
GI50 [24]: 22 µM (inactive)
GI50 [25]: 37.1 µM (inactive)
GI50 [26]: 26.6 µM (inactive)
GI50 [27]: 18.5 µM (inactive)
GI50 [28]: > 100 µM (inactive)
GI50 [29]: 50.9 µM (inactive)
GI50 [30]: 53.5 µM (inactive)
GI50 [31]: 43.3 µM (inactive)
GI50 [32]: 23.1 µM (inactive)
GI50 [33]: 26.5 µM (inactive)
GI50 [34]: 59.4 µM (inactive)
GI50 [35]: 89.5 µM (inactive)
GI50 [36]: 37.6 µM (inactive)
GI50 [37]: 29.4 µM (inactive)
GI50 [38]: 16.4 µM (inactive)
GI50 [39]: 49.8 µM (inactive)
GI50 [40]: 27.8 µM (inactive)
GI50 [41]: 31.3 µM (inactive)
GI50 [42]: 50.9 µM (inactive)
GI50 [43]: 99.5 µM (inactive)
GI50 [44]: 21.4 µM (inactive)
GI50 [45]: 54.7 µM (inactive)
GI50 [46]: 39.4 µM (inactive)
GI50 [47]: 48.3 µM (inactive)
GI50 [48]: 21.6 µM (inactive)
GI50 [49]: 67.9 µM (inactive)
GI50 [50]: 30.1 µM (inactive)
GI50 [51]: 24.1 µM (inactive)
GI50 [52]: 24.7 µM (inactive)
GI50 [53]: 61.1 µM (inactive)
GI50 [54]: 46.6 µM (inactive)
GI50 [55]: 62.1 µM (inactive)
GI50 [56]: 19.6 µM (inactive)
GI50 [57]: 41.1 µM (inactive)
GI50 [58]: > 100 µM (inactive)
GI50 [59]: 17.8 µM (inactive)

CN1CCCC2C(c3ccccc3)C(C3=NCCCC3)C(c3ccccc3)CC21 (stereo not given)
GI50 [1]: 17.8 µM (inactive)
GI50 [2]: 85.9 µM (inactive)
GI50 [3]: 53.2 µM (inactive)
GI50 [4]: > 100 µM (inactive)
GI50 [5]: > 100 µM (inactive)
GI50 [6]: > 100 µM (inactive)
GI50 [7]: 49.2 µM (inactive)
GI50 [8]: 20.2 µM (inactive)
GI50 [9]: 56.6 µM (inactive)
GI50 [10]: 27.2 µM
GI50 [11]: 32.1 µM (inactive)
GI50 [12]: > 100 µM (inactive)
GI50 [13]: 16.2 µM (inactive)
GI50 [14]: > 100 µM (inactive)
GI50 [15]: 35.6 µM (inactive)
GI50 [16]: 19.5 µM (inactive)
GI50 [17]: 73.6 µM (inactive)
GI50 [18]: 48.6 µM (inactive)
GI50 [19]: 59.3 µM (inactive)
GI50 [20]: 64.7 µM (inactive)
GI50 [21]: 17 µM (inactive)
GI50 [22]: > 100 µM (inactive)
GI50 [23]: 17.2 µM (inactive)
GI50 [24]: 19.5 µM (inactive)
GI50 [25]: 26.4 µM (inactive)
GI50 [26]: 15.9 µM (inactive)
GI50 [27]: > 100 µM (inactive)
GI50 [28]: 33.3 µM (inactive)
GI50 [29]: 51.2 µM (inactive)
GI50 [30]: 16 µM (inactive)
GI50 [31]: 50 µM (inactive)
GI50 [32]: 31.3 µM (inactive)
GI50 [33]: 23.4 µM (inactive)
GI50 [34]: > 100 µM (inactive)
GI50 [35]: 53.8 µM (inactive)
GI50 [36]: 27.7 µM (inactive)
GI50 [37]: 32.2 µM (inactive)
GI50 [38]: 15.6 µM (inactive)
GI50 [39]: 13.6 µM (inactive)
GI50 [40]: 19.5 µM (inactive)
GI50 [41]: 71 µM (inactive)
GI50 [42]: 39.5 µM (inactive)
GI50 [44]: 19.1 µM (inactive)
GI50 [45]: 24.5 µM (inactive)
GI50 [46]: 19.6 µM (inactive)
GI50 [47]: 20.7 µM (inactive)
GI50 [48]: 18.4 µM (inactive)
GI50 [49]: > 100 µM (inactive)
GI50 [50]: 72.3 µM (inactive)
GI50 [51]: 16.9 µM (inactive)
GI50 [52]: > 100 µM (inactive)
GI50 [53]: > 100 µM (inactive)
GI50 [54]: 42.6 µM (inactive)
GI50 [55]: 21.7 µM (inactive)
GI50 [56]: 35.2 µM (inactive)
GI50 [57]: 44.7 µM (inactive)
GI50 [58]: > 100 µM (inactive)
GI50 [59]: 31.8 µM (inactive)
